One molecule from patent US20120028837A1, “RAPID SCREEN FOR REPRODUCTIVE TOXICANTS” (PRESIDENT AND FELLOWS OF HARVARD COLLEGE, priority 2010, published 2012) can be followed below.

One series has as its system C. elegans. The following applies: in vivo, 4 days, 1 mM. As to the method:
To address whether BPA also affects C. elegans reproduction, worms were exposed to various concentrations of BPA under several culture conditions. The parameters tested were: BPA concentration (100 uM, 500 uM or 1 mM), vehicle (DMSO or ethanol), cholesterol concentration (5 ug/ml, 0.5 ug/ml or none) and culture method (liquid or plate).
(§1) Growing Conditions and Drug Exposures. Worms were cultured according to [23] at 20° C. on NGM plates without cholesterol. […] Exposure was carried from embryogenesis to adulthood by plating sodium hypochloride treated eggs onto drug and control plates and incubated at 20° C. for four days.

Series [1] relates to C. elegans germline. The series can be described thus: Size of mitotic zone of the germline (DAPI, phospho-histone H3 staining). The note with it: in vivo.
Description: In C. elegans, the germline is comprised of two main compartments, a mitotic region (the premeiotic tip), where nuclei are under the influence of the distal tip cell that maintains them in a proliferative state; and the meiotic region, where nuclei progress through the stages of Prophase I before being fertilized. The mitotic compartment of the worm gonad following BPA exposure was examined.
BPA bears endocrine disrupting activity in many developmental contexts including gonadal, brain and mammary gland development. BPA has affinity for multiple members of the estrogen receptors family, in particular BPA binds to the human estrogen receptor alpha (ERα) and ERβ as well as estrogen-related receptor gamma (ERR-γ) and in C. elegans with nuclear hormone receptor NHR-14 which also binds estrogen. […] Two hallmarks of exposure to BPA were examined, the decrease in the size of the proliferative zone and the condensation defects observed at diakinesis, as they are both highly penetrant and consistent phenotypes. […] Similarly to the experiments described above, the size of the mitotic zone was quantified as well as condensation defects at diakinesis.
as §1
Antibody Staining. DAN staining, immunostaining and analysis of stained meiotic nuclei were performed as in [25] except for ATL-1 and AIR-2 antibodies were dissected gonads were subjected to a 1% fixation method as described in [27]. […] The secondary antibodies used were: Cy3 anti-rabbit, FITC anti-guinea-pig and FITC anti-mouse (Jackson Immunochemicals), each at 1:100, Stacks of 0.2 μm slices were captured using a Leica microscope, coupled to the DeltaVision fluorescence microscope system (Applied Precision). […]

Series [2] concerns C. elegans germline. The following applies: in vivo. The source says: Synapsis and recombination are tightly linked events during pachytene throughout various species, as it is only in the context of a fully assembled SC that crossover recombination can be completed. Indeed, in C. elegans, null mutants of SC components such as syp-1, syp-2, syp-3, syp-4 and him-3, increased levels of RAD-51 foci formation and delayed kinetics of foci turnover are observed during pachytene. Consequently, there is activation of the DNA damage checkpoint leading to increased germ cell apoptosis. Recombination is an essential and highly regulated process for the exchange of information that takes place during prophase I [18]. As nuclei exit mitosis and progress through meiosis, programmed meiotic DNA double strand breaks (DSBs) are formed and processed by several DNA repair proteins including RAD-51 [25, 48]. […] As unrepaired recombination intermediates can trigger a DNA-damage checkpoint during pachytene leading to increased germ cell apoptosis, the number of apoptotic nuclei following BPA exposure was measured by Syto-12 staining. […]
Quantification of Germ Cell Apoptosis. Apoptotic germline nuclei were scored in young adults between 20 and 24 hours post-L4 using SYTO-12 (Invitrogen) and were processed as described in [26]. […] Both GFP positive and negative worms (heterozygous and homozygous for cep-1 respectively) were analyzed following BPA exposure. […]

Series [3] has as its system C. elegans germline. The series can be described thus: ATL-1 and p-CHK1 immunostaining (DNA damage checkpoint). In kind it is in vivo. An excerpt:
ATL-1, the C. elegans homologue of mammalian ATM and Rad3-related protein (ATR), accumulates to sites of persistent DSBs during meiosis, and together with CLK-2, acts as a sensor of germ-cell DNA damage which leads to phosphorylation of the checkpoint kinase CHK1 and ultimately apoptosis. To further examine the progression of DSB repair, the levels of ATL-1 and phosphorylated CHK1 (p-CHK1) were monitored throughout the gonad following exposure to BPA.

A further series has as its system xol-1::GFP, nx3 worms. The series can be described thus: Lethality, chemical sensitivity of xol-1::GFP, nx3 cuticle mutant strain. In kind it is in vivo, C. elegans. The following applies: four days. The protocol:
The sensitivity of the xol-1::GFP, nx3 strain compared to the xol-1::GFP strain was assayed by exposing 25 worms for four days (from eggs to adulthood) to a range of concentration of Bisphenol A: 100 μM, 500 μM and 1 mM. The nx3 cuticle mutation was expected to confer increased sensitivity to BPA.

The next series in a line: in vivo. The following applies: C. elegans.

SMILES strings stand for the structures.

Description for in vivo: The internal concentration of free BPA was measured by tandem HPLC analysis (Axys, BC, Canada) following an extensive number of physiological buffer washes and lysis of worms cultured on BPA plates (Materials an Methods).

Take `CC(C)(c1ccc(O)cc1)c1ccc(O)cc1` [BPA, Bisphenol A]: in the series with C. elegans, the embryonic viability was 1.5 % of controls and the “reduction in the number of eggs laid (brood size) compared to vehicle” value came out at 4 fold. Also, the “size of the premeiotic tip a day later” value in the series with C. elegans germline [1] is reported as “No significant increase”. For the same molecule, in the series on C. elegans germline [2], the “apoptotic levels in a cep-1 mutant background” value is listed as “reduced to normal levels” and the “number of apoptotic nuclei compared to vehicle” value is on record as “two to three-fold increase”. The “elevated RAD-51, ATL-1 or p-CHK1 staining in the mitotic germline nuclei” value in the series with C. elegans germline [3] (BPA exposure) is listed as “not observed”. In addition, in the series on C. elegans germline [3] (BPA treated vs control), the “levels of ATL-1 signal on pachytene nuclei” value was “significant increase” and the “levels of p-CHK1 signal on pachytene nuclei” value is given as “significant increase”. This molecule registered a lethality with xol-1::GFP, nx3 worms (100 μM) of 0%. The lethality in the series with xol-1::GFP, nx3 worms (500 μM) was found to be 96%. Besides, the lethality in the series on xol-1::GFP, nx3 worms (1 Mm) is on record as 100%. The molecule also had a concentration at 4 days, 1 mM in the series “in vivo” of 2000 ng/g.
